Measurements published in patent US12534439B2, “Xanthohumol derivatives and methods for making and using” (Oregon State University, priority 2021, dated 2026).
Where two headings read alike, the source gives them in different places.

Experiments:
[1] = test system: C2Cl2 cells; test: JC-1 mitochondrial membrane potential assay; assay type: cell-based, murine; conditions: compared with FCCP
Procedure: Mitochondrial respiration is coupled to ATP synthesis through an electrochemical proton gradient. Proton leak across the inner membrane results in depolarization of the mitochondrial transmembrane without deleteriously lowering the ATP synthesis. Proton leak can be mediated by UCPs and leads to the dissipation of the energy derived from substrate oxidation as heat. Considering the XP and XN effect on EE, the thermogenic activity was evaluated by assessing changes in UCP1 protein expression in the skeletal muscle, BAT, and WAT of HFD-fed mice. Unexpectedly, XP had no effect in UCP1 in the skeletal muscle, BAT, or WAT of HFD-fed mice (FIG. 18A). […] Therefore, the XP intrinsic protonophore properties were investigated by measured variations of mitochondrial membrane potential (ΔψM) in C2Cl2 cells stained with JC-1 dye. […]
Measure of Metabolic Activity. […] Metabolic measurements such as EE and respiratory exchange […] (calculated from the ratio of CO2 volume produced and O2 volume consumed) were measured. Motor activity and food intake were also recorded. […] JC-1 aggregates were detected with excitation and emission wavelengths of 540 and 570 nm. JC-1 monomers were detected with excitation and emission wavelengths of 485 and 535 nm on a BioTek Synergy HT plate reader.

[2] = Quantification of XP and XN in plasma and cortex by UPLC-MS with or without glucuronidase digestion; assay type: in vivo, mice; conditions: for concentration at 11 weeks: C57BL/6J, mouse, without glucuronidase digestion, daily oral XP 30, XN 60 mg/kg body weight, mean ± SEM
Procedure: Quantification of XP and XN. For plasma extractions, ascorbic acid (5 μL, 10% m/m water, Sigma-Aldrich, St Louis, MO, USA) was added to 40 μL of plasma. For tissue extractions, 20 mg of cortex was extracted with 200 μL of 50% methanol in water and 10 μL of ascorbic acid (10% m/m water). Samples were incubated with or without 10 μL of glucuronidase (20 mg/mL, Sigma-Aldrich, St Louis, MO, USA) for 3 hours at 37° C. The samples were extracted with 200 μL of acetonitrile containing 100 ng/mL of [13C3]-XN. The supernatant was transferred to a new tube and vacuum-dried, and the pellet was reconstituted in 100 μL of 50% methanol in water. UPLC-MS was performed using a hybrid triple quadrupole linear ion trap mass spectrometer (4000 QTRAP, AB SCIEX, Toronto, Canada). The elution profile was set as follows: 5% B from 0 to 0.5 min, 5 to 100% B from 0.5 to 3 minutes, 1 minute hold at 100% B, followed by re-equilibration of the HPLC column at 5% B for 2 minutes. Selected reaction monitoring transitions used for quantification were m/z 353.1>119.1 for XN, m/z 379.3>321.3 for XP, and m/z 356.1>120.1 for the [13C3]-XN internal standard.
For plasma extractions, ascorbic acid (5 μL, 10% m/m water, Sigma Aldrich, St Louis, MO, USA) was added to 40 μL of plasma. Samples were incubated with or without 10 μL glucuronidase (20 mg/mL, Sigma Aldrich, St Louis, MO, USA) for 3 hr at 37° C. Samples were extracted with 200 μL of acetonitrile containing 100 ng/mL [^13C3]—XN^1. The supernatant was transferred to a new tube, vacuum-dried and the pellet was reconstituted in 100 μL of 50% methanol in water. UPLC-MS was performed using a hybrid triple quadrupole linear ion trap mass spectrometer (4000 QTRAP, AB SCIEX, Toronto, Canada) as previously reported with some modifications. The elution profile was set as follows: 5% solvent B from 0 to 0.5 minute, 5% to 100% B from 0.5-3 minutes, 1 minute hold at 100% B followed by re-equilibration of the HPLC column at 5% B for 2 minutes. Selected Reaction Monitoring transitions used for quantification were m/z 353.1>119.1 for XN, m/z 379.3>321.3 for XP and m/z 356.1>120.1 for [^13C3]—XN internal standard. XP and XN concentrations were calculated by the external calibration method using calibration curves constructed from pure XP and XN standards.

[3] = test system: C2Cl2 cells; conditions: cited from earlier work
[4] = general statement on XN; cited from earlier work
[5] = test system: 3T3L1 cells; test: MTT cell viability assay in differentiated 3T3L1 adipocytes; assay type: cell-based, murine
Procedure: To assess the toxicity of 4-(5-(4-hydroxyphenyl)-1-methyl-1h-pyrazol-3-yl)-5-methoxy-2-(3-methylbut-2-en-1-yl)benzene-1,3-diol (XP), in vitro cell viability assays were performed on several cell lines. HepG2, 3T3L1 and C2Cl2 cells were exposed to XP and cell viability was assessed using an MTT assay. At concentrations lower than 50 μM, XP had no effect on the viability of the human liver cancer cell lines HepG2 and murine myoblast cell lines C2Cl2 with respect to the control treatment (FIGS. 11A-11B). […] This establishes that XP is safe to use in vivo at dosages similar to xanthohumol.
Cell Viability Assays. Cells were seeded in 96-well plates 24 hours prior to adding the compound. HepG2 cells were seeded at a density of 5×10^4 cells/mL and C2Cl2 at 1×10^4 cells/mL in order to reach 80% confluency at the beginning of the experiment. After 24 hours, the culture medium was replaced with fresh medium containing various concentrations ranging between 0 and 200 μM of XP. The cells were incubated in the presence of the compound for 24 hours, at which time, the MTT viability assay was carried as previously described. […] The cells were incubated for 3 hours and then acidified with 100% isopropanol for 15 minutes before absorbance reading at 570 nm on a BioTek Synergy HT plate reader.

[6] = cortex, read-out: CORTEX concentration, Non-glucuronidated
[7] = plasma, read-out: PLASMA concentration, Non-glucuronidated

Row | Compound | Effect on JC-1 aggregates/monomers ratio [1] | concentration at 11 weeks [2, 6] [ng/g] | concentration at 11 weeks [2, 7] [ng/mL] | Cytotoxic concentration [3] | Metabolism [4] | Concentration without effect on cell viability ([5]; 3T3L1, MTT) | Concentration at which dose-dependent reduction in cell viability occurred ([5]; differentiated 3T3L1 adipocytes, MTT) [µM] | Phase 1 metabolism ([2]; plasma of treated mice) | Metabolites detected in plasma ([2]; plasma of treated mice, mass spectrometric analysis)
1 | COc1cc(O)c(CC=C(C)C)c(O)c1C(=O)/C=C/c1ccc(O)cc1 [XN, xanthohumol] | dose-dependent and milder than that of protonophore FCCP | 59.7 ± 16.8 | 13.2 ± 3.07 | above 25 μM | subject to extensive phase 1 and phase 2 metabolism | – | – | – | –
2 | COc1cc(O)c(CC=C(C)C)c(O)c1-c1cc(-c2ccc(O)cc2)n(C)n1 [XP, 4-(5-(4-hydroxyphenyl)-1-methyl-1H-pyrazol-3-yl)-5-methoxy-2-(3-methylbut-2-en-1-yl)benzene-1,3-diol] | dose-dependent and milder than that of protonophore FCCP | 40.1 ± 2.8 | 43.5 ± 3.54 | – | – | up to 5 μM | 10 | resistant to phase 1 metabolism | XP-glucuronide was the only metabolite
